The results in this text go back to US12290519B2, “Anti-inflammatory coupling compound drug, and preparation method therefor and use thereof” (COVAL BIOPHARMA (SHANGHAI) CO., LTD., priority 2021, dated 2025).

A short description of the data set: Hydrolysis rate / drug release rate of the compounds (release of JAK inhibitor, HPLC). The class given is physicochemical. The following applies: % release of JAK inhibitor from sample in acetonitrile/water=7/3 (v/v), 37° C. constant temperature shaker, sampled days 1-4, HPLC. Summed up: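 HPLC quantified parent JAK inhibitor freed from each compound, calibrated with 0.0002–0.08 mg/mL standards. Samples in acetonitrile/water 7/3 were kept sealed at 37° C and analysed at day 0 and on days 1 to 4. % release was computed from sample weight, curve slope/intercept and the molecular-weight ratio.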
Turning to `CCc1cccc2c3c([nH]c12)C(CC)(CC(=O)OCn1ccc2c(N(C)[C@H]4CC[C@H](CS(=O)(=O)NC)CC4)ncnc21)OCC3` (stereo partly drawn) [Ex. 94, (4-(Methyl ((trans)-4-((N-methylsulfamoyl)methyl)cyclohexyl)amino)-7H-pyrrolo [2,3-d]pyrimidin-7-yl) methyl 2-(1,8-diethyl-1,3,4,9-tetrahydropyran [3,4-b]indol-1-yl) acetate], the “Release Rate (%/day)” value is given as 0.72 %/day. For the molecule `CC(C(=O)OCn1ccc2c(-c3cnn([C@H](CC#N)C4CCCC4)c3)ncnc21)c1cccc(C(=O)c2ccccc2)c1` (stereo partly drawn) [Ex. 99, (4-(1-((R)-2-cyano-1-cyclopentylethyl)-1H-pyrazol-4-yl)-7H-pyrrolo [2,3-d]pyrimidin-7-yl) methyl 2-(3-benzoylphenyl) propanoate], the “Release Rate (%/day)” value amounted to 0.21 %/day. Turning to `CC(C(=O)OCn1ccc2c(-c3cnn([C@H](CC#N)C4CCCC4)c3)ncnc21)c1ccc(-c2ccccc2)c(F)c1` (stereo partly drawn) [Ex. 100, (4-(1-((R)-2-cyano-1-cyclopentylethyl)-1H-pyrazol-4-yl)-7H-pyrrolo [2,3-d]pyrimidin-7-yl) methyl 2-(2-fluoro-[1, 1′-biphenyl]-4-yl) propanoate], the “Release Rate (%/day)” value came to 0.24 %/day.

In the case of `COc1ccc2c(c1)c(CC(=O)OCn1ccc3c(-c4cnn([C@H](CC#N)C5CCCC5)c4)ncnc31)c(C)n2C(=O)c1ccc(Cl)cc1` [Ex. 104, (R)-2-(4-(1-(2-cyano-1-cyclopentylethyl)-1H-pyrazol-4-yl)-7H-pyrrolo [2,3-d]pyrimidin-7-yl) methyl 2-(1-(4-chlorobenzoyl)-5-methoxy-2-methyl-1H-indol-3-yl) acetate], the “Release Rate (%/day)” value came to 0.45 %/day.

`CCC(C(=O)OCn1ccc2c(-c3cnn([C@H](CC#N)C4CCCC4)c3)ncnc21)c1ccc(N2Cc3ccccc3C2=O)cc1` (stereo partly drawn) [Ex. 105, (4-(1-((R)-2-cyano-1-cyclopentylethyl)-1H-pyrazol-4-yl)-7H-pyrrolo [2,3-d]pyrimidin-7-yl) methyl 2-(4-(1-oxoisoindolin-2-yl)phenyl) butanoate]: the “Release Rate (%/day)” value is listed as 0.17 %/day.

Consider `Cc1c(Cl)cccc1Nc1ccccc1C(=O)OCn1ccc2c(-c3cnn([C@H](CC#N)C4CCCC4)c3)ncnc21` [Ex. 107, (R)-(4-(1-(2-cyano-1-cyclopentylethyl)-1H-pyrazol-4-yl)-7H-pyrrolo [2,3-d]pyrimidin-7-yl) methyl 2-((3-chloro-2-methylphenyl)amino) benzoate], for which the “Release Rate (%/day)” value worked out at 0.22 %/day. For `CC(=O)Nc1ccc(CC(=O)OCn2ccc3c(-c4cnn([C@H](CC#N)C5CCCC5)c4)ncnc32)cc1` [Ex. 110, (R)-(4-(1-(2-cyano-1-cyclopentylethyl)-1H-pyrazol-4-yl)-7H-pyrrolo [2,3-d]pyrimidin-7-yl) methyl 2-(4-acetamidophenyl) acetate] the value was 0.08 %/day; for `CNS(=O)(=O)CC1CCC(N(C)c2ncnc3c2ccn3COC(=O)C(C)c2ccc(-c3ccccc3)c(F)c2)CC1` (stereo not drawn) [Ex. 113, (4-(Methyl ((trans)-4-((N-methylsulfamoyl)methyl)cyclohexyl)amino)-7H-pyrrolo [2,3-d]pyrimidin-7-yl) methyl 2-(2-fluoro-[1, 1′-biphenyl]-4-yl) propanoate], 0.42 %/day; for `CNS(=O)(=O)CC1CCC(N(C)c2ncnc3c2ccn3COC(=O)Cc2c(C)n(C(=O)c3ccc(Cl)cc3)c3ccc(OC)cc23)CC1` (stereo not drawn) [Ex. 116, (4-(Methyl ((trans)-4-((N-methylsulfamoyl)methyl)cyclohexyl)amino)-7H-pyrrolo [2,3-d]pyrimidin-7-yl) methyl 2-(1-(4-chlorobenzoyl)-5-methoxy-2-methyl-1H-indol-3-yl) acetate], 0.42 %/day. The same measure for `CCC(C(=O)OCn1ccc2c(N(C)C3CCC(CS(=O)(=O)NC)CC3)ncnc21)c1ccc(N2Cc3ccccc3C2=O)cc1` (stereo not drawn) [Ex. 117, (4-(Methyl ((trans)-4-((N-methylsulfamoyl)methyl)cyclohexyl)amino)-7H-pyrrolo [2,3-d]pyrimidin-7-yl) methyl 2-(4-(1-)oxoisoindolin-2-yl) phenyl) butanoate]: 0.08 %/day; for `CNS(=O)(=O)C[C@H]1CC[C@H](N(C)c2ncnc3c2ccn3COC(=O)c2ccccc2Nc2cccc(Cl)c2C)CC1` [Ex. 120, (4-(Methyl ((trans)-4-((N-methylsulfamoyl)methyl)cyclohexyl)amino)-7H-pyrrolo [2,3-d]pyrimidin-7-yl) methyl 2-((3-chloro-2-methylphenyl)amino) benzoate]: 0.42 %/day; for `CCS(=O)(=O)N1CC(CC#N)(n2cc(-c3ncnc4c3ccn4COC3=C(C(=O)Nc4ncc(C)s4)N(C)S(=O)(=O)c4ccccc43)cn2)C1` [Ex. 122, 4-((4-(1-(3-(Cyanomethyl)-1-(ethylsulfonyl)azetidin-3-yl)-1H-pyrazol-4-yl)-7H-pyrrolo [2,3-d]pyrimidin-7-yl)methoxy)-2-methyl-N-(5-methylthiazol-2-yl)-2H-benzo [e] [1, 2] thiazine-3-carboxamide 1,1-dioxide]: 15.32 %/day.

As to `CC[C@@H]1CN(C(=O)NCC(F)(F)F)C[C@@H]1c1cnc2cnc3c(ccn3C(=O)[C@@H](C)c3ccc(CC(C)C)cc3)n12` [Ex. 123, (3S, 4R)-3-ethyl-4-(3-((S)-2-(4-isobutylphenyl)propanoyl)-3H-imidazo [1,2-a]pyrrolo [2,3-e]pyrazin-8-yl)-N-(2,2,2-trifluoroethyl) pyrrolidine-1-carboxamide], the “Release Rate (%/day)” value stood at 3.02 %/day.

Consider `CC[C@@H]1CN(C(=O)NCC(F)(F)F)C[C@@H]1c1cnc2cnc3c(ccn3C(=O)C(C)c3ccc(CC(C)C)cc3)n12` (stereo partly drawn) [Ex. 124, (3S, 4R)-3-ethyl-4-(3-(2-(4-isobutylphenyl)propanoyl)-3H-imidazo [1,2-a]pyrrolo [2,3-e]pyrazin-8-yl)-N-(2,2,2-trifluoroethyl) pyrrolidine-1-carboxamide], for which the “Release Rate (%/day)” value is 2.75 %/day. Take `CC[C@@H]1CN(C(=O)NCC(F)(F)F)C[C@@H]1c1cnc2cnc3c(ccn3C(=O)C(C)c3ccc(-c4ccccc4)c(F)c3)n12` (stereo partly drawn) [Ex. 125, (3S, 4R)-3-ethyl-4-(3-(2-(2-fluoro-[1, 1′-biphenyl]-4-yl)propanoyl)-3H-imidazo [1,2-a]pyrrolo [2,3-e]pyrazin-8-yl)-N-(2,2,2-trifluoroethyl) pyrrolidine-1-carboxamide]: the “Release Rate (%/day)” value was found to be 6.17 %/day. For `CC[C@@H]1CN(C(=O)NCC(F)(F)F)C[C@@H]1c1cnc2cnc3c(ccn3C(=O)C(C)c3cccc(C(=O)c4ccccc4)c3)n12` (stereo partly drawn) [Ex. 126, (3R, 4S)-3-(3-(2-(3-benzoylphenyl)propanoyl)-3H-imidazo [1,2-a]pyrrolo [2,3-e]pyrazin-8-yl)-4-ethyl-N-(2,2,2-trifluoroethyl) pyrrolidine-1-carboxamide] the value was 7.80 %/day; for `CC[C@@H]1CN(C(=O)NCC(F)(F)F)C[C@@H]1c1cnc2cnc3c(ccn3C(=O)c3ccccc3Nc3cccc(Cl)c3C)n12` [Ex. 130, (3R, 4S)-3-(3-(2-((3-chloro-2-methylphenyl)amino)benzoyl)-3H-imidazo [1,2-a]pyrrolo [2,3-e]pyrazin-8-yl)-4-ethyl-N-(2,2,2-trifluoroethyl) pyrrolidine-1-carboxamide], 11.67 %/day.

Consider `CC[C@@H]1CN(C(=O)NCC(F)(F)F)C[C@@H]1c1cnc2cnc3c(ccn3C(=O)[C@@H](C)c3ccc4cc(OC)ccc4c3)n12` [Ex. 131], for which the “Release Rate (%/day)” value was 3.56 %/day. For `CC[C@@H]1CN(C(=O)NCC(F)(F)F)C[C@@H]1c1cnc2cnc3c(ccn3C(=O)Cc3c(C)n(C(=O)c4ccc(Cl)cc4)c4ccc(OC)cc34)n12` [Ex. 133, (3R, 4S)-3-(3-(2-(1-(4-Chlorobenzoyl)-5-methoxy-2-methyl-1H-indol-3-yl)acetyl)-3H-imidazo [1,2-a]pyrrolo [2,3-e]pyrazin-8-yl)-4-ethyl-N-(2,2,2-trifluoroethyl) pyrrolidine-1-carboxamide] the value was 10.13 %/day. The same measure for `CCC(C(=O)n1ccc2c1ncc1ncc([C@H]3CN(C(=O)NCC(F)(F)F)C[C@H]3CC)n12)c1ccc(N2Cc3ccccc3C2=O)cc1` (stereo partly drawn) [Ex. 138]: 2.15 %/day; for `CC(C)Cc1ccc([C@H](C)C(=O)n2ccc3c(N4CC[C@]5(C4)[C@@H](C)CN5C(=O)CC#N)ncnc32)cc1` [Ex. 140, 3-((3S, 4R)-6-(7-((S)-2-(4-isobutylphenyl)propanoyl)-7H-pyrrolo [2,3-d]pyrimidin-4-yl)-3-methyl-1,6-diazaspiro [3.4]oct-1-yl)-3-oxopropanenitrile]: 8.10 %/day; for `Cc1cnc(NC(=O)C2=C(OCn3ccc4c(N(C)[C@H]5CN(C(=O)CC#N)CC[C@H]5C)ncnc43)c3ccccc3S(=O)(=O)N2C)s1` [Ex. 142, 4-((4-(((3R, 4R)-1-(2-cyanoacetyl)-4-methylpiperidin-3-yl) (methyl)amino)-7H-pyrrolo [2,3-d]pyrimidin-7-yl)methoxy)-2-methyl-N-(5-methylthiazol-2-yl)-2H-benzo [e] [1, 2] thiazine-3-carboxamide 1,1-dioxide]: 0.05 %/day.

With `CCC(C(=O)n1ccc2c(N3CC[C@]4(C3)[C@@H](C)CN4C(=O)CC#N)ncnc21)c1ccc(N2Cc3ccccc3C2=O)cc1` (stereo partly drawn) [Ex. 143, 3-((3S, 4R)-3-methyl-6-(7-(2-(4-(1-oxoisoindolin-2-yl)phenyl)butanoyl)-7H-pyrrolo [2,3-d]pyrimidin-4-yl)-1,6-diazaspiro [3.4]octan-1-yl)-3-oxopropanenitrile], the “Release Rate (%/day)” value turned out to be 4.29 %/day. The same measure for `CC(C)Cc1ccc([C@H](C)C(=O)OCn2ccc3c(N4CC[C@]5(C4)[C@@H](C)CN5C(=O)CC#N)ncnc32)cc1` [Ex. 144, (4-((3S, 4R)-1-(2-cyanoacetyl)-3-methyl-1,6-diazaspiro [3.4]octan-6-yl)-7H-pyrrolo [2,3-d]pyrimidin-7-yl) methyl (S)-2-(4-isobutylphenyl) propanoate]: 0.05 %/day.
